Experiments:
[1] = system: Rattus norvegicus; test: Reduction in length (control value = 152.9+/-9.7) of gastric lesions induced by ethanol was measured, after administration of 2.5 mg/kg po in Indomethacin-pretreated rats; format: functional, Stomach
[2] = system: Rattus norvegicus; test: Percent inhibition of gastric lesions induced by ethanol was measured, after administration of 2.5 mg/kg po in rats; format: functional; settings: Stomach
[3] = system: Rattus norvegicus; test: Percent inhibition of gastric lesions (length = 139.3+/-11.2) induced by ethanol was measured, after administration of 2.5 mg/kg po in endomethacin pretreated rats; format: functional; settings: Stomach
[4] = system: Rattus norvegicus; test: Acid output from the stomach (control value = 120.3+/-11.1) in pylorus ligated rats (5 mg/kg po of the Compound was administered 1 hr before the pylorus ligation); format: functional
[5] = system: Rattus norvegicus; test: Reduction in length (control value = 141+/-14.3) of gastric lesions induced by ethanol was measured, after administration of 2.5 mg/kg po in rats; format: functional, Stomach
[6] = system: Rattus norvegicus; test: Percent inhibition of gastric lesions (length = 110+/-8.4) induced by ethanol was measured, after administration of 2.5 mg/kg po in NEM-pretreated rats; format: functional; settings: Stomach
[7] = system: Rattus norvegicus; test: Percent inhibition of gastric lesions (length = 34.3+/-5.5) induced by ethanol was measured, after administration of 2.5 mg/kg po in rats; format: functional; settings: Stomach
[8] = system: Rattus norvegicus; test: Percent inhibition of gastric lesions (length = 126.6+/-16.9) induced by ethanol was measured, after administration of 5 mg/kg po in endomethacin pretreated r rats; format: functional; settings: Stomach
[9] = system: Rattus norvegicus; test: Percent inhibition of gastric lesions (length = 50+/-9.9) induced by ethanol was measured, after administration of 5 mg/kg po in l-NAME-pretreated rats; format: functional; settings: Stomach
[10] = system: Rattus norvegicus; test: Percent inhibition of gastric lesions (length = 24.9 +/-3.6) induced by ethanol was measured, after administration of 5 mg/kg po in rats; format: functional; settings: Stomach
[11] = system: Rattus norvegicus; test: pH of the gastric juice (control value = 1.39+/-0.02) of stomach content of pylorus ligated rats was measured (2.5 mg/kg po of the Compound was administered 1 hr before the pylorus ligation); format: ADME, organism-based; settings: in vivo
[12] = system: Rattus norvegicus; test: Reduction in length (control value = 152.9+/-9.7) of gastric lesions induced by ethanol was measured, after administration of 5 mg/kg po in Indomethacin-pretreated rats; format: functional, Stomach
[13] = system: Rattus norvegicus; test: Acid output from the stomach (control value = 120.3+/-11.1) in pylorus ligated rats (2.5 mg/kg po of the Compound was administered 1 hr before the pylorus ligation); format: functional
[14] = system: Rattus norvegicus; test: Percent inhibition of gastric lesions induced by endomethacin was measured, after administration of 2.5 mg/kg po in rats; format: functional; settings: Stomach
[15] = system: Rattus norvegicus; test: Volume of the gastric juice (control value = 4.7+/-.3) of stomach content of pylorus ligated rats was measured (5 mg/kg po of the Compound was administered 1 hr before the pylorus ligation); format: functional
[16] = system: Rattus norvegicus; test: Percent inhibition of gastric lesions induced by ethanol was measured, after administration of 5 mg/kg po in l-NAME-pretreated rats; format: functional; settings: Stomach
[17] = system: Rattus norvegicus; test: Reduction in length (control value = 206.7+/-6.3) of gastric lesions induced by endomethacin was measured, after administration of 2.5 mg/kg po NEM-pretreated in rats; format: functional, Stomach
[18] = system: Rattus norvegicus; test: Percent inhibition of gastric lesions (length = 92.8+/-8) induced by ethanol was measured, after administration of 2.5 mg/kg po in l-NAME-pretreated rats; format: functional; settings: Stomach
[19] = system: Rattus norvegicus; test: Reduction in length (control value = 190.1+/-9.3) of gastric lesions induced by endomethacin was measured, after administration of 5 mg/kg po L-NAME-pretreated in rats; format: functional, Stomach
[20] = system: Rattus norvegicus; test: Reduction in length (control value = 206.7+/-6.3) of gastric lesions induced by endomethacin was measured, after administration of 5 mg/kg po NEM-pretreated in rats; format: functional, Stomach
[21] = system: Rattus norvegicus; test: Reduction in length (control value = 141+/-14.3) of gastric lesions induced by ethanol was measured, after administration of 1.25 mg/kg po in rats; format: functional, Stomach
[22] = system: Rattus norvegicus; test: pH of the gastric juice (control value = 1.39+/-0.02) of stomach content of pylorus ligated rats was measured (5 mg/kg po of the Compound was administered 1 hr before the pylorus ligation); format: ADME, organism-based; settings: in vivo
[23] = system: Rattus norvegicus; test: Reduction in length (control value = 70.4+/-2.3) of gastric lesions induced by endomethacin was measured, after administration of 2.5 mg/kg po in rats; format: functional, Stomach
[24] = system: Rattus norvegicus; test: Volume of the gastric juice (control value = 4.7+/-.3) of stomach content of pylorus ligated rats was measured(2.5 mg/kg po of the Compound was administered 1 hr before the pylorus ligation); format: functional
[25] = system: Rattus norvegicus; test: Percent inhibition of gastric lesions induced by ethanol was measured, after administration of 5 mg/kg po in rats; format: functional; settings: Stomach
[26] = system: Rattus norvegicus; test: Percent inhibition of gastric lesions induced by endomethacin was measured, after administration of 1.25 mg/kg po in rats; format: functional; settings: Stomach
[27] = system: Rattus norvegicus; test: Percent inhibition of gastric lesions induced by endomethacin was measured, after administration of 5 mg/kg po in rats; format: functional; settings: Stomach
[28] = system: Rattus norvegicus; test: Percent inhibition of gastric lesions induced by ethanol was measured, after administration of 1.25 mg/kg po in rats; format: functional; settings: Stomach
[29] = system: Rattus norvegicus; test: Reduction in length (control value = 141+/-14.3) of gastric lesions induced by ethanol was measured, after administration of 5 mg/kg po in rats; format: functional, Stomach
[30] = system: Rattus norvegicus; test: Reduction in length (control value = 70.4+/-2.3) of gastric lesions induced by endomethacin was measured, after administration of 5 mg/kg po in rats; format: functional, Stomach
[31] = system: Rattus norvegicus; test: Reduction in length (control value = 70.4+/-2.3) of gastric lesions induced by endomethacin was measured, after administration of 1.25 mg/kg po in rats; format: functional, Stomach
[32] = system: Rattus norvegicus; test: Reduction in length (control value = 190.1+/-9.3) of gastric lesions induced by endomethacin was measured, after administration of 2.5 mg/kg po L-NAME-pretreated in rats; format: functional, Stomach

CC1CC[C@@]2(OC1)OC1C[C@H]3[C@@H]4CC=C5C[C@@H](O[C@@H]6O[C@H](CO)[C@@H](O[C@@H]7O[C@@H](CO)[C@H](O)[C@H]7O)[C@H](O)[C@H]6O[C@@H]6O[C@@H](C)[C@H](O)[C@@H](O)[C@H]6O)CC[C@]5(C)[C@H]4CC[C@]3(C)[C@@]1(O)[C@@H]2C (some centres not stated)
Length [1]: 139 mm | inhibition in vivo at 2.5 mg/kg [2]: 82.9% | inhibition in vivo at 2.5 mg/kg [3]: 8.9% | Acid output [4]: 71.8 u equiv hr-1 | Length [5]: 24.1 mm | inhibition in vivo at 2.5 mg/kg [6]: 46.8% | inhibition in vivo at 2.5 mg/kg [7]: 74.8% | inhibition in vivo at 5 mg/kg [8]: 17.2% | inhibition in vivo at 5 mg/kg [9]: 73.7% | inhibition in vivo at 5 mg/kg [10]: 81.7% | pH [11]: 1.41 | Length [12]: 127 mm | Acid output [13]: 98.5 u equiv hr-1 | inhibition in vivo at 2.5 mg/kg [14]: 57% | Volume [15]: 3.3 ml 4hr-1 | inhibition in vivo at 5 mg/kg [16]: 69.5% | Length [17]: 110 mm | inhibition in vivo at 2.5 mg/kg [18]: 51.2% | Length [19]: 50 mm | Length [20]: 63 mm | Length [21]: 72.6 mm | pH [22]: 1.41 | Length [23]: 30.3 mm | Volume [24]: 4.1 ml 4hr-1 | inhibition in vivo at 5 mg/kg [25]: 93.7% | inhibition in vivo at 1.25 mg/kg [26]: 50.4% | inhibition in vivo at 5 mg/kg [27]: 70.2% | inhibition in vivo at 1.25 mg/kg [28]: 48.5% | Length [29]: 8.9 mm | Length [30]: 21 mm | Length [31]: 34.9 mm | Length [32]: 92.8 mm
